The text below walks through data of patent EP4000606A1, “COMPOUNDS FOR CORONAVIRUS INFECTION TREATMENT AND/OR PREVENTION” (priority 2020, dated 2022).

Molecules are shown by their SMILES. Where two headings read alike, the source gives them in different places.

The test system of this assay is SARS-CoV-2. Kind of assay: microbe, parasite or virus in culture. It counts as cell-based. The following applies: for IC50: Severe acute respiratory syndrome coronavirus 2, 120 h.

The compound `CN(C)c1cccc(-c2c3c(=O)n(-c4ccccc4Cl)[nH]c3cc(=O)n2C)c1` [compound 13, 2-(2-Chlorophenyl)-4-[3-(dimethylamino)phenyl]-5-methyl-1H-pyrazolo[4,3-c]pyridine-3,6(2H,5H)-dione] registered an IC50 of 7.57 µM. The “Maximum confluence reached (%)” value (5 days) came to 101.52%. As to `Cc1cc(O[C@@H](CCC(F)(F)F)c2ccc(C(=O)NCCC(=O)O)cc2)cc(C)c1-c1ccc(C(C)(C)C)cc1` [compound 57, N-(4-[(1S)-1-[(4'-tert-Butyl-2,6-dimethylbiphenyl-4-yl)oxy]-4,4,4-trifluorobutyl]benzoyl)-beta-alanine], under “5 days”, the “Maximum confluence reached (%)” value is 39.53%. Consider `COc1cc(NCc2ccc3nc(N)nc(N)c3c2C)cc(OC)c1OC` [compound 2, 2,4-Diamino-5-methyl-6-[(3,4,5-trimethoxyanilino)methyl]quinaz oline 5-Methyl-6-[[(3,4,5-trimetoxyphenyl)amino]methyl]-2,4-quinazolinediamine], for which the “Maximum confluence reached (%)” value (5 days) is given as 78.23%. `Oc1c(Cl)cc(Cl)cc1Sc1cc(Cl)cc(Cl)c1O` [compound 102, 2,2'-Thio-bis(4,6-dichlorophenol), Bis(2-hydroxy-3,5-dichlorophenyl) sulfide]: the “Maximum confluence reached (%)” value (5 days) amounted to 31.25%. Consider `CC1=NN(c2ccc(C)c(C)c2)C(=O)/C1=N\Nc1cccc(-c2cccc(C(=O)O)c2)c1O` [compound 37, 3'-[2(Z)-[1-(3,4-Dimethylphenyl)-3-methyl-5-oxo-4,5-dihydro-1H-pyrazol-4-ylidene]hydrazino]-2'-hydroxybiphenyl-3-carboxylic acid], for which the IC50 worked out at 58.1 µM. Where the note is “5 days”, the “Maximum confluence reached (%)” value is 63.17%.

Consider `COc1ccccc1[C@H](Cn1c(=O)n(C(C)(C)C(=O)O)c(=O)c2c(C)c(-c3ncco3)sc21)OC1CCOCC1` [compound 61, 2-[1-[(2R)-2-(2-Methoxyphenyl)-2-(tetrahydro-2H-pyran-4-yloxy)ethyl]-5-methyl-6-(1,3-oxazol-2-yl)-2,4-dioxo-1,4-dihydrothieno[2,3-d]pyrimidin-3(2H)-yl]-2-methylpropanoic acid], for which the “Maximum confluence reached (%)” value (5 days) was found to be 78.18%. Consider `O=C(Nc1ccc(Cl)c(Cl)c1)Nc1ccc(Cl)c(Cl)c1` [compound 72, 1,3-Bis(3,4-dichlorophenyl)urea], for which the “Maximum confluence reached (%)” value (5 days) turned out to be 45.87%. On to `CN1CCN(CC/C=C2/c3ccccc3Sc3ccc(S(=O)(=O)N(C)C)cc32)CC1` [compound 109, (Z)-N,N-Dimethyl-9-[3-(4-methyl-1-piperazinyl)propylidene]thioxant hene-2-sulfonamide], for which the “Maximum confluence reached (%)” value (5 days) was determined as 36.55%.

`CC(C)(C)c1cc(C=C(C#N)C#N)cc(Br)c1O` [compound 99, 2-(3-Bromo-5-tert-butyl-4-hydroxybenzylidene)propanedini trile 2-(3-Bromo-5-tert-butyl-4-hydroxybenzylidene)malononitrile] had an IC50 of 7.23 µM. Moreover, the “Maximum confluence reached (%)” value (5 days) was determined as 37.27%. On to `Cc1ccc(C(=O)Nc2cccc(C(F)(F)F)c2)cc1Nc1nc(-c2cccnc2)nc2c1cnn2C` [compound 62, 4-methyl-3-{[1-methyl-6-(3-pyridinyl)-1H-pyrazolo[3,4-d]pyrimidin-4-yl]amino}-N-[3-(trifluoromethyl)phenyl]benzamide], for which the “Maximum confluence reached (%)” value is 88.43%. Turning to `Nc1ncc(-c2ccnc(Nc3ccncc3)n2)c(CC2CC2)n1` [compound 20, 4'-(Cyclopropylmethyl)-N2-(pyridin-4-yl)-4,5'-bipyrimidine-2,2'-diamine], the “Maximum confluence reached (%)” value (5 days) was determined as 98.17%. With `CC(C)c1cnn2c(NCc3ccccc3)cc(NCCCCCCN)nc12` [compound 48, N5-(6-Aminohexyl)-N7-benzyl-3-isopropylpyrazolo[1,5-a]pyrimidine-5,7-diamine], for the setting “5 days”, the “Maximum confluence reached (%)” value is given as 47.31%. For `CN1CCN(CCCN2c3ccccc3Sc3ccc(C(F)(F)F)cc32)CC1.Cl.Cl` [compound 94, 10-[3-(4-Methylpiperazin-1-yl)propyl]-2-(trifluoromethyl)-10H-phenothiazine dihydrochloride], the “Maximum confluence reached (%)” value (5 days) is listed as 37.97%.
